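Growth conditions: 96-well plates. Treatment: test compound, 48 hours, 5 concentrations. Analysis: linear interpolation between bracketing concentrations; unreached endpoints set to highest concentration. GI50 marks 50% less growth.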 Active and inactive are the calls of the source. No stated cut-off is given here; in the data, active = GI50 up to about 1.1 µM and inactive = higher.
Assays:
Assay in all cases: DTP human tumour cell line panel, 48 h
OVCAR-5 = tested on: OVCAR-5
786-0 = tested on: 786-0
Hs-578T = tested on: Hs-578T
SF-268 = tested on: SF-268
SN12C = tested on: SN12C
SW-620 = tested on: SW-620
K562 = tested on: K562
UACC-62 = tested on: UACC-62
Malme-3M = tested on: Malme-3M
HOP-92 = tested on: HOP-92
EKVX = tested on: EKVX
HT-29 = tested on: HT-29
PC-3 = tested on: PC-3
NCI/ADR-RES = tested on: NCI/ADR-RES
CCRF-CEM = tested on: CCRF-CEM
RXF 393 = tested on: RXF 393
HCC 2998 = tested on: HCC 2998
SNB-75 = tested on: SNB-75
BT-549 = tested on: BT-549
MCF7 = tested on: MCF7

Measured: GI50

CCOC(CBr)OC1C(=O)OCC1(C)C (centres undefined)
inactive: OVCAR-5 > 100 µM | 786-0 > 100 µM | Hs-578T > 100 µM | SF-268 > 100 µM | SN12C > 100 µM | SW-620 > 100 µM | K562 > 100 µM | UACC-62 > 100 µM | Malme-3M > 100 µM | HOP-92 > 100 µM | EKVX > 100 µM | HT-29 > 100 µM | PC-3 > 100 µM | NCI/ADR-RES > 100 µM | CCRF-CEM > 100 µM | RXF 393 > 100 µM | HCC 2998 > 100 µM | SNB-75 > 100 µM | BT-549 > 100 µM | MCF7 > 100 µM

CC[P+](C#Cc1ccccc1)(c1ccccc1)c1ccccc1
inactive: OVCAR-5 4.06 µM | 786-0 1.57 µM | Hs-578T 2.86 µM | SF-268 3.03 µM | SN12C 1.75 µM | SW-620 1.17 µM | UACC-62 1.63 µM | Malme-3M 1.59 µM | HOP-92 1.92 µM | EKVX 2.26 µM | HT-29 2.43 µM | PC-3 2.3 µM | NCI/ADR-RES 38.9 µM | HCC 2998 1.97 µM | SNB-75 1.78 µM | BT-549 1.31 µM | MCF7 3.09 µM
active: K562 0.224 µM | CCRF-CEM 0.358 µM | RXF 393 0.966 µM

O=C(NCCC(F)(F)C(F)(F)C(F)(F)C(F)(F)F)NC1OC(CO)C(O)C(O)C1O (centres undefined)
inactive: OVCAR-5 > 100 µM | 786-0 > 100 µM | Hs-578T > 100 µM | SF-268 > 100 µM | SN12C > 100 µM | SW-620 > 100 µM | K562 > 100 µM | UACC-62 > 100 µM | Malme-3M > 100 µM | HOP-92 > 100 µM | HT-29 > 100 µM | PC-3 > 100 µM | NCI/ADR-RES > 100 µM | CCRF-CEM > 100 µM | RXF 393 > 100 µM | HCC 2998 > 100 µM | SNB-75 > 100 µM | BT-549 > 100 µM | MCF7 > 100 µM

COC(=O)c1cc2c3c(ccc2[nH]1)N(C(=O)c1cc2cc(OC)c(OC)c(OC)c2[nH]1)CC3CCl (centres undefined)
inactive: OVCAR-5 > 100 µM | 786-0 3.79 µM | Hs-578T 8.45 µM | SF-268 > 100 µM | SW-620 5.48 µM | UACC-62 4.54 µM | Malme-3M 8.59 µM | HOP-92 > 100 µM | EKVX > 100 µM | HT-29 8.55 µM | PC-3 4.31 µM | NCI/ADR-RES 12.2 µM | CCRF-CEM 5.98 µM | RXF 393 5.51 µM | HCC 2998 > 100 µM | SNB-75 > 100 µM | BT-549 3.51 µM | MCF7 3.94 µM

CCC(O)(Cc1ccc(OC)cc1)c1ccc(OC)cc1 (centres undefined)
inactive: OVCAR-5 > 100 µM | 786-0 > 100 µM | Hs-578T > 100 µM | SF-268 > 100 µM | SN12C > 100 µM | SW-620 > 100 µM | K562 > 100 µM | UACC-62 > 100 µM | Malme-3M > 100 µM | HOP-92 > 100 µM | EKVX > 100 µM | HT-29 > 100 µM | PC-3 > 100 µM | NCI/ADR-RES > 100 µM | CCRF-CEM > 100 µM | RXF 393 > 100 µM | HCC 2998 > 100 µM | SNB-75 > 100 µM | BT-549 > 100 µM | MCF7 > 100 µM

CCN(CC)C(=O)COc1cc2c(O)c3c(O)c(C)c4c(c13)C(=O)C(C)(OC=CC(OC)C(C)C(OC(C)=O)C(C)C(O)C(C)C(O)C(C)C=CC=C(C)C(=O)N2)O4 (centres undefined)
inactive: OVCAR-5 > 100 µM | 786-0 > 100 µM | Hs-578T > 100 µM | SF-268 > 100 µM | SN12C > 100 µM | SW-620 > 100 µM | K562 > 100 µM | UACC-62 > 100 µM | Malme-3M > 100 µM | HOP-92 > 100 µM | EKVX > 100 µM | HT-29 > 100 µM | PC-3 > 100 µM | NCI/ADR-RES > 100 µM | CCRF-CEM > 100 µM | RXF 393 > 100 µM | HCC 2998 > 100 µM | SNB-75 > 100 µM | BT-549 > 100 µM | MCF7 > 100 µM

CC1=C2CC(C)(C)/C=C\C(=O)/C(C)=C\C3=C[C@H](C)C[C@]3(O2)C1=O
inactive: OVCAR-5 1.32 µM | Hs-578T 2.26 µM | SF-268 6.78 µM | SN12C 1.42 µM | K562 1.51 µM | EKVX 1.87 µM | PC-3 2.02 µM | HCC 2998 4.85 µM | SNB-75 4.1 µM
active: 786-0 0.516 µM | SW-620 0.41 µM | UACC-62 1.05 µM | Malme-3M 0.897 µM | HOP-92 1.09 µM | HT-29 0.927 µM | NCI/ADR-RES 0.537 µM | CCRF-CEM 0.138 µM | RXF 393 0.597 µM | BT-549 0.518 µM | MCF7 0.343 µM

O=[N+]([O-])c1ccc(NN=C2c3ccccc3Cc3ccccc32)c([N+](=O)[O-])c1
inactive: OVCAR-5 12.3 µM | 786-0 10.9 µM | Hs-578T 4.07 µM | SF-268 14.3 µM | SN12C > 67.5 µM | SW-620 5.85 µM | K562 4.32 µM | UACC-62 5.38 µM | Malme-3M 3.39 µM | HOP-92 20.8 µM | EKVX 5.37 µM | HT-29 2.88 µM | PC-3 4.95 µM | NCI/ADR-RES 4.82 µM | CCRF-CEM 3.1 µM | RXF 393 > 24.4 µM | HCC 2998 6.41 µM | SNB-75 4.59 µM | BT-549 > 100 µM | MCF7 4.23 µM

COc1ccc2c(C=O)c3n(c(=O)c2c1OC)CCc1cc2c(cc1-3)OCO2
inactive: OVCAR-5 > 100 µM | 786-0 90.2 µM | Hs-578T > 100 µM | SF-268 > 100 µM | SN12C 41.3 µM | SW-620 38.6 µM | UACC-62 21 µM | Malme-3M 80 µM | HOP-92 10.9 µM | EKVX 35.6 µM | HT-29 17.6 µM | PC-3 15.1 µM | NCI/ADR-RES 18.6 µM | CCRF-CEM > 100 µM | RXF 393 2.91 µM | HCC 2998 14.2 µM | SNB-75 18.9 µM | BT-549 18.9 µM | MCF7 21.8 µM

CC(=O)O[C@H]1C(=O)[C@@]2(C)[C@H]([C@H](OC(=O)c3ccc([N+](=O)[O-])cc3)[C@]3(O)C[C@H](OC(=O)[C@H](O)[C@@H](NC(=O)c4ccccc4)c4ccccc4)C(C)=C1C3(C)C)[C@]1(OC(C)=O)CO[C@@H]1C[C@@H]2O
inactive: OVCAR-5 > 25 µM | 786-0 > 25 µM | Hs-578T > 25 µM | SF-268 > 25 µM | SN12C > 25 µM | SW-620 > 25 µM | K562 > 25 µM | UACC-62 > 25 µM | Malme-3M > 25 µM | HOP-92 > 25 µM | EKVX > 25 µM | HT-29 > 25 µM | PC-3 > 25 µM | NCI/ADR-RES > 25 µM | CCRF-CEM > 25 µM | RXF 393 > 25 µM | HCC 2998 > 25 µM | SNB-75 > 25 µM | BT-549 > 25 µM | MCF7 > 25 µM

CCOC(=O)NC(Nc1c(F)c(F)c(F)c(F)c1F)(C(F)(F)F)C(F)(F)F
inactive: OVCAR-5 > 100 µM | 786-0 > 100 µM | Hs-578T > 100 µM | SF-268 > 100 µM | SN12C > 100 µM | SW-620 > 100 µM | K562 > 100 µM | UACC-62 > 100 µM | Malme-3M > 100 µM | HOP-92 > 100 µM | EKVX > 100 µM | PC-3 > 100 µM | NCI/ADR-RES > 100 µM | CCRF-CEM > 100 µM | RXF 393 > 100 µM | HCC 2998 > 100 µM | SNB-75 > 100 µM | BT-549 > 100 µM | MCF7 > 100 µM

C=Cc1cc(OC)c2c(c1)c(=O)oc1c2cc(OC)c2c(O)ccc(C3OC(C)C(O)C(C)(O)C3O)c21 (centres undefined)
active: OVCAR-5 0.0397 µM | 786-0 0.000348 µM | Hs-578T 0.00295 µM | SF-268 0.0237 µM | SN12C 0.0303 µM | SW-620 0.0225 µM | K562 0.0306 µM | UACC-62 0.0317 µM | Malme-3M 0.0764 µM | HOP-92 0.041 µM | EKVX 0.0398 µM | HT-29 0.0341 µM | PC-3 0.000638 µM | NCI/ADR-RES 0.0344 µM | CCRF-CEM 0.0225 µM | RXF 393 0.0225 µM | HCC 2998 0.0493 µM | SNB-75 0.0302 µM | BT-549 0.00183 µM | MCF7 0.0225 µM

N=C(N)NS(=O)(=O)c1ccc(NC(=O)c2ccc3nc4ccccc4c(N)c3c2)cc1
inactive: OVCAR-5 > 100 µM | 786-0 > 100 µM | Hs-578T > 100 µM | SF-268 > 100 µM | SN12C > 100 µM | SW-620 > 100 µM | K562 > 100 µM | UACC-62 > 100 µM | Malme-3M > 100 µM | HOP-92 > 100 µM | EKVX > 100 µM | HT-29 > 100 µM | PC-3 > 100 µM | NCI/ADR-RES > 100 µM | CCRF-CEM > 100 µM | RXF 393 > 100 µM | HCC 2998 > 100 µM | SNB-75 > 100 µM | BT-549 > 100 µM | MCF7 > 100 µM

COP(C)(=O)C(Cc1c[nH]c2ccccc12)NC(=O)OCc1ccccc1 (centres undefined)
inactive: OVCAR-5 > 100 µM | 786-0 > 100 µM | Hs-578T > 100 µM | SF-268 > 100 µM | SN12C > 100 µM | SW-620 > 100 µM | K562 > 100 µM | UACC-62 > 100 µM | Malme-3M > 100 µM | HOP-92 > 100 µM | EKVX > 100 µM | HT-29 > 100 µM | PC-3 > 100 µM | NCI/ADR-RES > 100 µM | CCRF-CEM > 100 µM | RXF 393 > 100 µM | HCC 2998 > 100 µM | BT-549 > 100 µM | MCF7 > 100 µM
